Consider five molecules from US20180140612A1, “TOPICAL OPHTHALMIC FORMULATIONS FOR THE TREATMENT AND PREVENTION OF MIGRAINE HEADACHE” (Ora, Inc., priority 2013, published 2018).

Counter-ions that a name gives are not always drawn. Where only a bound is given, the exact number is not on record here.

For series [1] the following is noted: cited from earlier work.
For series [2] the following is noted: migraineurs versus control subjects; cited from earlier work.
Series [3] can be described thus: instillation of ophthalmic drops in the eye of subjects with migraine. In kind it is in vivo, human. The following applies: two subjects with occasional migraine. The method, then:
Data from two subjects with occasional migraine has shown that one drop of ketotifen 0.025% in the eye was successful in providing relief within 2 hours post treatment
Data from two subjects with occasional migraine has shown that one drop of ketotifen 0.05% in the eye was successful in providing relief within 2 hours post treatment

For series [4] the following is noted: first month of treatment; prescription-event data; cited from earlier work.
The conditions of series [5]: topical 0.5% ophthalmic solution, twice daily dosing for 8 days, cited from earlier work.

`CC(C)NCC(O)COc1ccc(CCOCC2CC2)cc1` (centres unmarked) [betaxolol]: in series [1] (case control study, group of subjects receiving the topical beta-blocker), the migraine related complaints result was “showed improvement in their migraine related complaints”.
In the case of `NCCc1c[nH]cn1` [histamine], the “induction of migraine headache” value in series [2] was “induced migraine headache more often in migraineurs than in control subjects”.
For the molecule `CN1CCC(=C2c3ccccc3CC(=O)c3sccc32)CC1` [ketotifen], the “time to relief post treatment” value in series [3] (one drop of ketotifen 0.025% in the eye) and in series [3] (one drop of ketotifen 0.05% in the eye) was ≤ 2 h in each case.
With `O=C(O)COCCN1CCN([C@H](c2ccccc2)c2ccc(Cl)cc2)CC1` [levocetirizine], the “association of headache/migraines with treatment” value in series [4] is recorded as “positively associated”.
With `CC(C)(C)NC[C@H](O)COc1nsnc1N1CCOCC1` [timolol maleate], the “time of peak plasma concentration following first dose” value in series [5] was ≤ 4 h. For the same molecule, the peak plasma concentration in series [5] (following first dose) was 0.5 ng/mL. The “further attacks of migraine” value in series [1] (case report, person with history of common migraine, topical timolol maleate 0.5% for bilateral ocular hypertension) is reported as “did not experience any further attacks of migraine”.
